How the values were obtained:
Abl^Y272H/A363V = assay: Kinase assay, phosphorylation of CrkII, Abl Y272H/A363V; assay type: biochemical, human
[1] = test system: Abl^FK (SH3-SH2 module and kinase domain); assay: NMR; set-up: species or system human; settings: GNF5 displaces imatinib from the myristoyl pocket

Q: For `O=C(NCCO)c1cccc(-c2cc(Nc3ccc(OC(F)(F)F)cc3)ncn2)c1` [GNF5], which “kinase activity of Abl^Y272H/A363V in the presence of both imatinib and GNF5” value (Abl^Y272H/A363V; 2 mM ATP) is on record?
A: strongly suppressed

Q: What about the “effect on equilibrium, GNF5 added to imatinib-bound Abl^FK” value [1] of the same molecule?
A: shifts the population almost fully towards the inhibited state

Q: `Cc1ccc(NC(=O)c2ccc(CN3CCN(C)CC3)cc2)cc1Nc1nccc(-c2cccnc2)n1` [imatinib] was tested. Which “kinase activity of Abl^Y272H/A363V in the presence of imatinib” value (Abl^Y272H/A363V; 2 mM ATP, compared with Abl^Y272H/L359A) did it give?
A: significantly higher than the activity of Abl^Y272H/L359A

Q: What about the “effect on catalytic activity of Abl^Y272H/A363V at high ATP” value (Abl^Y272H/A363V; 20 mM ATP) of the same molecule?
A: significantly increases the catalytic activity

Reference: article PMC8752476 (Journal of molecular biology, 2021)
